Measurements: PubChem BioAssay AID1259411 (Chemical Carcinogenesis Research Information System (CCRIS), 2018)
The source made the active and inactive calls. The rule behind the calls is not given here.

Test system: rodent carcinogenicity bioassays, tumor incidence
Assay: CCRIS carcinogenicity studies
Procedure, shortened: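 Archive of carcinogenicity, mutagenicity, tumor promotion and tumor inhibition results drawn from journals, NCI reports and other sources, expert-reviewed; covers 1985-2011 and is no longer updated.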

## CCN(CC)N=O
Species: MOUSE, Strain/Sex: B6C3F1/MALE, Route: INTRAPERITONEAL, Dose: 0, 12 UG ON DAYS 0, 3, 9 AND 15 (STUDY DURATION: 132 WK), Tumor Site: Type of Lesion: LIVER: TUMORS
  carcinogen call: active; positive
Species: MOUSE, Strain/Sex: B6C3F2 (BRACHYMORPHIC)/MALE, Route: INTRAPERITONEAL, Dose: 0, 0.02, 0.07 UMOL/G BW IN 10 µL/G BW TRIOCTANOIN ONCE AT 12 D OF AGE (STUDY DURATION: 9 MO), Dose: 0, 0.02, 0.07 UMOL/G BW IN 10 µL/G BW TRIOCTANOIN ONCE AT 12 D OF AGE (STUDY DURATION: 9 MO), Tumor Site: Type of Lesion: LIVER: HEPATOMA
  carcinogen call: active; positive
Species: MOUSE, Strain/Sex: BALB/C/FEMALE, Route: INTRAPERITONEAL, Dose: 0, 15, 90 MG/KG ONCE (STUDY DURATION: 18 MONTHS), Dose: 0, 15, 90 MG/KG ONCE (STUDY DURATION: 18 MONTHS), Tumor Site: Type of Lesion: LUNG: TUMOR
  carcinogen call: active; positive
Species: MOUSE, Strain/Sex: C3AF1/FEMALE, Route: INTRAPERITONEAL, Dose: 0, 1.5, 3 UG IN 0.01 ML TRIOCTANOIN/G BW INITIAL DOSE GIVEN ON DAY 1 OF AGE AND 3 SUBSEQUENT DOSES GIVEN 3, 9 AND 15 DAY, Dose: 0, 1.5, 3 UG IN 0.01 ML TRIOCTANOIN/G BW INITIAL DOSE GIVEN ON DAY 1 OF AGE AND 3 SUBSEQUENT DOSES GIVEN 3, 9 AND 15 DAY, Tumor Site: Type of Lesion: LIVER: ADENOMA, CARCINOMA, LUNG: TUMORS
  carcinogen call: active; positive
Species: MOUSE, Strain/Sex: C3AF1/FEMALE, Route: INTRAPERITONEAL, Dose: 0, 1.5, 3 UG IN 0.01 ML TRIOCTANOIN/G BW INITIAL DOSE GIVEN ON DAY 15 OF AGE AND 3 SUBSEQUENT DOSES GIVEN 3, 9 AND 15 DA, Dose: 0, 1.5, 3 UG IN 0.01 ML TRIOCTANOIN/G BW INITIAL DOSE GIVEN ON DAY 15 OF AGE AND 3 SUBSEQUENT DOSES GIVEN 3, 9 AND 15 DA, Tumor Site: Type of Lesion: LIVER: ADENOMA, CARCINOMA, LUNG: TUMORS
  carcinogen call: active; positive
Species: MOUSE, Strain/Sex: C3AF1/FEMALE, Route: INTRAPERITONEAL, Dose: 0, 1.5, 3 UG IN 0.01 ML TRIOCTANOIN/G BW INITIAL DOSE GIVEN ON DAY 42 OF AGE AND 3 SUBSEQUENT DOSES GIVEN 3, 9 AND 15 DA, Dose: 0, 1.5, 3 UG IN 0.01 ML TRIOCTANOIN/G BW INITIAL DOSE GIVEN ON DAY 42 OF AGE AND 3 SUBSEQUENT DOSES GIVEN 3, 9 AND 15 DA, Tumor Site: Type of Lesion: LUNG: TUMORS
  carcinogen call: active; positive
Species: MOUSE, Strain/Sex: C3AF1/MALE, Route: INTRAPERITONEAL, Dose: 0, 1.5, 3 UG IN 0.01 ML TRIOCTANOIN/G BW INITIAL DOSE GIVEN ON DAY 1 OF AGE AND 3 SUBSEQUENT DOSES GIVEN 3, 9 AND 15 DAY, Dose: 0, 1.5, 3 UG IN 0.01 ML TRIOCTANOIN/G BW INITIAL DOSE GIVEN ON DAY 1 OF AGE AND 3 SUBSEQUENT DOSES GIVEN 3, 9 AND 15 DAY, Tumor Site: Type of Lesion: LIVER: ADENOMA, CARCINOMA, LUNG: TUMORS
  carcinogen call: active; positive
Species: MOUSE, Strain/Sex: C3AF1/MALE, Route: INTRAPERITONEAL, Dose: 0, 1.5, 3 UG IN 0.01 ML TRIOCTANOIN/G BW INITIAL DOSE GIVEN ON DAY 15 OF AGE AND 3 SUBSEQUENT DOSES GIVEN 3, 9 AND 15 DA, Dose: 0, 1.5, 3 UG IN 0.01 ML TRIOCTANOIN/G BW INITIAL DOSE GIVEN ON DAY 15 OF AGE AND 3 SUBSEQUENT DOSES GIVEN 3, 9 AND 15 DA, Tumor Site: Type of Lesion: LIVER: ADENOMA, CARCINOMA, LUNG: TUMORS
  carcinogen call: active; positive
Species: MOUSE, Strain/Sex: C3AF1/MALE, Route: INTRAPERITONEAL, Dose: 0, 1.5, 3 UG IN 0.01 ML TRIOCTANOIN/G BW INITIAL DOSE GIVEN ON DAY 42 OF AGE AND 3 SUBSEQUENT DOSES GIVEN 3, 9 AND 15 DA, Dose: 0, 1.5, 3 UG IN 0.01 ML TRIOCTANOIN/G BW INITIAL DOSE GIVEN ON DAY 42 OF AGE AND 3 SUBSEQUENT DOSES GIVEN 3, 9 AND 15 DA, Tumor Site: Type of Lesion: LIVER: ADENOMA, CARCINOMA, LUNG: TUMORS
  carcinogen call: active; positive
Species: MOUSE, Strain/Sex: C3H/FEMALE, Route: TRANSPLACENTAL, Dose: 0, 0.5 MMOL IN 0.9% STERILE SALINE (51 MG/KG) ON DAY 16 OF GESTATION (STUDY DURATION: LIFETIME)
  carcinogen call: inactive; negative
Species: MOUSE, Strain/Sex: C3H/FEMALE, Route: TRANSPLACENTAL, Dose: 0, 0.5 MMOL IN 0.9% STERILE SALINE (51 MG/KG) ON DAY 19 OF GESTATION (STUDY DURATION: LIFETIME), Tumor Site: Type of Lesion: LIVER: CARCINOMA, LUNG: TUMOR
  carcinogen call: active; positive
Species: MOUSE, Strain/Sex: C3H/MALE, Route: INTRAPERITONEAL, Dose: 0, 12 UG ON DAYS 0, 3, 9 AND 15 (STUDY DURATION: 132 WK), Tumor Site: Type of Lesion: LIVER: TUMORS
  carcinogen call: active; positive
Species: MOUSE, Strain/Sex: C3H/MALE, Route: TRANSPLACENTAL, Dose: 0, 0.5 MMOL IN 0.9% STERILE SALINE (51 MG/KG) ON DAY 16 OF GESTATION (STUDY DURATION: LIFETIME)
  carcinogen call: inactive; negative
Species: MOUSE, Strain/Sex: C3H/MALE, Route: TRANSPLACENTAL, Dose: 0, 0.5 MMOL IN 0.9% STERILE SALINE (51 MG/KG) ON DAY 19 OF GESTATION (STUDY DURATION: LIFETIME), Tumor Site: Type of Lesion: LIVER: CARCINOMA, LUNG: CARCINOMA
  carcinogen call: active; positive
Species: MOUSE, Strain/Sex: C57BL/6J/FEMALE, Route: INTRAPERITONEAL, Dose: 0, 15, 90 MG/KG ONCE (STUDY DURATION: 18 MONTHS), Dose: 0, 15, 90 MG/KG ONCE (STUDY DURATION: 18 MONTHS), Tumor Site: Type of Lesion: LUNG: TUMOR
  carcinogen call: active; positive
Species: MOUSE, Strain/Sex: C57BL/MALE, Route: INTRAPERITONEAL, Dose: 0, 12 UG ON DAYS 0, 3, 9 AND 15 (STUDY DURATION: 132 WK)
  carcinogen call: inactive; negative
Species: MOUSE, Strain/Sex: EU-PIM-1/FEMALE, Route: GAVAGE, Dose: 0, 1, 3 MG/KG 1/D FOR 38 WK (STUDY DURATION: 38 WK), Dose: 0, 1, 3 MG/KG 1/D FOR 38 WK (STUDY DURATION: 38 WK), Tumor Site: Type of Lesion: LIVER: HEMANGIOSARCOMA, LYMPHATIC SYSTEM: LYMPHOMA
  carcinogen call: active; positive
Species: MOUSE, Strain/Sex: EU-PIM-1/MALE, Route: GAVAGE, Dose: 0, 1, 3 MG/KG 1/D FOR 38 WK (STUDY DURATION: 38 WK), Dose: 0, 1, 3 MG/KG 1/D FOR 38 WK (STUDY DURATION: 38 WK), Tumor Site: Type of Lesion: LIVER: HEMANGIOSARCOMA
  carcinogen call: active; positive
Species: MOUSE, Strain/Sex: SWISS/MALE, Route: INTRAGASTRIC, Dose: 0, 80, 40 MG/KG IN NORMAL SALINE ADMINISTERED WITH A 4 WK GAP BETWEEN EACH DOSE, (STUDY DURATION: 24 WK), Dose: 0, 80, 40 MG/KG IN NORMAL SALINE ADMINISTERED WITH A 4 WK GAP BETWEEN EACH DOSE, (STUDY DURATION: 24 WK), Tumor Site: Type of Lesion: LUNG: TUMOR
  carcinogen call: active; positive
Species: MOUSE, Strain/Sex: SWR/FEMALE, Route: INTRAPERITONEAL, Dose: 0, 15, 90 MG/KG ONCE (STUDY DURATION: 18 MONTHS), Dose: 0, 15, 90 MG/KG ONCE (STUDY DURATION: 18 MONTHS), Tumor Site: Type of Lesion: LUNG: TUMOR
  carcinogen call: active; positive
Species: RABBIT, Route: ORAL, Tumor Site: Type of Lesion: LIVER
  carcinogen call: active; positive
Species: RAT, Route: INTRAPERITONEAL, RECTAL, Tumor Site: Type of Lesion: LIVER
  carcinogen call: active; positive
Species: RAT, Route: INTRAVENOUS, Tumor Site: Type of Lesion: KIDNEY
  carcinogen call: active; positive
Species: RAT, Route: ORAL, Tumor Site: Type of Lesion: LIVER, ESOPHAGUS, KIDNEY, NASAL CAVITY, Tumor Site: Type of Lesion: LIVER, ESOPHAGUS, KIDNEY, NASAL CAVITY
  carcinogen call: active; positive
Species: RAT, Strain/Sex: F344/FEMALE, Route: INTRAVESICULAR, Dose: 0, 2.5 MG IN 0.2 ML ETHANOL: DEIONIZED WATER (1:3) 2/WK FOR 25 WK (TOTAL DOSE 1.2 MMOL) (STUDY DURATION: LIFESPAN), Tumor Site: Type of Lesion: LIVER: HEMANGIOSARCOMA, ESOPHAGUS: TUMOR
  carcinogen call: active; positive
Species: RAT, Strain/Sex: F344/FEMALE, Route: ORAL, Dose: 0, 18 MG/L IN DEIONIZED DRINKING WATER DURING WK 1, 5, AND 9 (STUDY DURATION: 121 WK), Tumor Site: Type of Lesion: HEMATOPOIETIC SYSTEM: LEUKEMIA
  carcinogen call: active; positive
Species: RAT, Strain/Sex: WISTAR/MALE, Route: ORAL, Dose: 0, 0.033, 0.066, 0.132, 0.264, 0.528, 1.056, 1.584, 2.112, 2.640, 3.168, 4.224, 5.280, 6.336, 8.448, 16.896 PPM IN DRINK, Dose: 0, 0.033, 0.066, 0.132, 0.264, 0.528, 1.056, 1.584, 2.112, 2.640, 3.168, 4.224, 5.280, 6.336, 8.448, 16.896 PPM IN DRINK, Tumor Site: Type of Lesion: ESOPHAGUS: TUMOR, LIVER HEPATOCELLULAR CARCINOMA
  carcinogen call: active; positive
